“Also recorded” adds a separate entry of the source.
Tests used:
[1] = system: H4 SSR3 KO and control cells; assay: Microtubule polymerization, alpha-tubulin immunofluorescence in H4 cells; format: cell-based, human; conditions: PTX 0.5 μM, 48 h
Procedure: H4 SSR3 knockout and non-targeting control cells were grown on glass coverslips. […] The cells were then stained with α-tubulin and SSR3 antibodies at 1:100 dilution and the images were acquired on the Nikon A1 (C) confocal microscope. Microtubule bundles per cell cluster were counted for the analysis.

[2] = mice, systemic delivery of ABX; cited from earlier work
H4 = assay: Cell viability assay (PTX dose response, CellTiter Glo) in glioma cell lines; format: cell-based, human; conditions: H4 glioma cell line, PTX dose response curve
Procedure: GBM cells were seeded at a density of 5000 cells per well in a 96 well plate. One day after seeding, cells were checked for attachment and confluence (60-70%). […] 72 hours later cell viability was determined by CellTiter Glo (Promega).

[3] = pharmacologic data and clinical investigations; cited from earlier work

## CC(=O)O[C@H]1C(=O)[C@@]2(C)[C@H]([C@H](OC(=O)c3ccccc3)[C@]3(O)C[C@H](OC(=O)[C@H](O)[C@@H](NC(=O)c4ccccc4)c4ccccc4)C(C)=C1C3(C)C)[C@]1(OC(C)=O)CO[C@@H]1C[C@@H]2O [PTX, Paclitaxel]
[1]
  effect on microtubule polymerization: stabilization of microtubule polymerization
[2]
  enhancement of brain penetration of PTX by ultrasound therapy: 3-5 fold
H4
  sensitivity to PTX among glioma cell lines: most sensitive; also recorded: highest degree of sensitivity
[3]
  crossing of the BBB: does not cross the BBB

Reference: patent US20240294988A1, “METHODS OF DETERMINING RESPONSIVENESS TO CHEMOTHERAPEUTIC COMPOUNDS FOR CANCER THERAPY” (Northwestern University, priority 2021, published 2024)
